The source made the active and inactive calls. The calls are words filed in the database; no cut-off is given here.
How the values were obtained:
Bacillus subtilis [1] = test: Bactericidal activity against Bacillus subtilis up to 500 ug/ml after 48 hrs; assay type: functional, organism-based
Escherichia coli [2] = test: Bacteriostatic activity against Escherichia coli up to 500 ug/ml after 48 hrs; assay type: functional, organism-based
Bacillus subtilis [3] = test: Bacteriostatic activity against Bacillus subtilis up to 500 ug/ml after 48 hrs; assay type: functional, organism-based
Escherichia coli [4] = test: Bactericidal activity against Escherichia coli up to 500 ug/ml after 48 hrs; assay type: functional, organism-based
Bacillus subtilis [5] = test: Antibacterial activity against Bacillus subtilis after 48 hrs; assay type: functional

| MIC (Bacillus subtilis [5]) | SMILES | Activity (Bacillus subtilis [1]) | Activity (Escherichia coli [2]) | Activity (Bacillus subtilis [3]) | Activity (Escherichia coli [4]) |
| --- | --- | --- | --- | --- | --- |
|  | CCCCCCCCOC(=O)c1ccncc1 | inactive | inactive | inactive | inactive |
|  | CCCCC[C@@H](C)COC(=O)c1ccncc1 | inactive | inactive | inactive | inactive |
| < 10 µg/mL | CC1(C)S[C@@H]2[C@H](NC(=O)[C@H](N)c3ccccc3)C(=O)N2[C@H]1C(=O)O [AMPICILLIN] |  |  |  |  |

From ChEMBL document CHEMBL3632574, “Synthesis and evaluation of antibacterial activity of (R)-2-methylheptyl isonicotinate, a putative naturally occurring bioactive agent” (2015)
